Assay results from PMC12140054, “Small glycomimetic antagonists of the cytomegalovirus glycoprotein UL141 prevent binding to TRAIL death receptor” (The Journal of Biological Chemistry, 2025).

Columns and labels:
UL141 W235A mutant = target: T1, UL141 W235A mutant (Human cytomegalovirus, UniProt Q6RJQ3, W235A); experiment: SPR binding to UL141 alanine mutant W235A; conditions: W235A (site C), 0 to 25 μM
T1 construct: extracellular domain of HCMV UL141 (residues 30–300, Gene ID: 3077418); made in house; host or cells: Sf9 (baculovirus)
Description: (§1) Collectively, the findings from molecular modeling, ELISA, and SPR prompted a more detailed investigation into the binding mechanisms, leading us to explore the possibility of distinct binding sites for UL141 in its interaction with glycomimetic compound 18. To further clarify this, we conducted mutational analysis on the surface residues of UL141 to identify specific binding sites involved in this interaction. The following residues were selected for alanine-scanning mutagenesis, followed by SPR analysis to assess their contribution to the binding affinity of UL141 for 18: Asp91, Glu92, Arg82, Arg80, and Asp37 (site A); Tyr148 and Arg146 (site B); and Arg85, Leu163, Glu164, Pro231, Trp235, and Asp232 (site C) (Fig. 9A). The UL141 mutants were generated through single alanine substitutions and recombinantly produced in the BV-Sf9 system following the same protocol as the WT UL141. […] The binding affinities of the remaining mutants were assessed using SPR, as illustrated in Figure 9. […] Binding interactions were monitored over a 300-s period. […]
(§2) Figure 9 Mutational analysis of UL141 binding sites for antagonist 18. […] An alternative representation of the same SPR data, showing all measured concentration points, is provided in panel (C), with the structure of compound 18 included for reference. […]

UL141 D232A mutant = target: T2, UL141 D232A mutant (Human cytomegalovirus, UniProt Q6RJQ3, D232A); experiment: SPR binding to UL141 alanine mutant D232A; conditions: D232A (site C), 0 to 25 μM
T2 construct: extracellular domain of HCMV UL141 (residues 30–300, Gene ID: 3077418); made in house; host or cells: Sf9 (baculovirus)
Description: as §1, §2

[1] = system: human foreskin fibroblasts HFF-BJ (ATCC CRL-2522 cells); experiment: MTT cytotoxicity / cell viability assay; assay type: cell-based; conditions: 0.1 to 50 μM, 72 h
Description: Cell viability as visualized by fold change of formazan-positive cells normalized to the untreated control and DMSO. Viability reduced below 40% represents the cytotoxic zone, below the dotted line in each plot. The number of biological replicates is indicated.
Human foreskin fibroblasts (HFF), a type of primary fibroblast derived from neonatal foreskin tissue, were chosen for this bioassay due to their distinct advantages in studies involving HCMV. For instance, the HHF cells provide a relevant and effective platform due to their unique susceptibility to HCMV infection, ability to mimic human immune responses, and relevance to clinical scenarios. […] HFF cells were incubated with each compound at concentrations ranging from 0.1 to 50 μM and any possible cytotoxic effect was monitored for 72 h. Tested compounds were dissolved in dimethyl sulfoxide (DMSO). […] The cytotoxic effect (CTE) is represented here as the concentration that causes a reduction of more than 40% in the number of viable cells.
Cells were seeded in a 96-well plate at a density of 1 × 10^4 cells per well for the measurement of cytotoxicity of the compounds (without UVA irradiation). […] Cells after treatment were incubated for […]. Untreated cells were considered negative control, and DMSO-treated cells (at appropriate concentration) were considered vehicle control. The classical MTT assay (3-(4,5-dimethyl thiazolyl-2)-2,5-diphenyltetrazolium bromide) ([68]) was used to measure cellular metabolic activity as an indicator of cell viability, proliferation, and cytotoxicity. Briefly, 0.5 mg/ml MTT solution was dispensed in each well of the 96-well plate and incubated for 4 h. Afterward, the MTT solution was removed and 200 μl of 100% DMSO was added to each well and the plate was placed on a microplate shaker for 5 min to dissolve the formazan granules. The absorbance was measured at 550 nm using a spectrophotometer. DMSO and MTT were purchased from Thermo Fisher Scientific. The darker the solution, the greater the number of viable, metabolically active cells. All experimental compounds were measured using at least 2 to 3 replicates for each and the averaged values from three independent experiments (n = 3) are presented. Cell viability was visualized by fold change of formazan-positive cells normalized to the untreated control and DMSO. Viability reduced below 40% represents the cytotoxic zone. All evaluations were performed using GraphPad Prism 9.5.0 (GraphPad Software, LLC), if other software was not explicitly mentioned.

T2 sequence (Q6RJQ3 30-300 D232A): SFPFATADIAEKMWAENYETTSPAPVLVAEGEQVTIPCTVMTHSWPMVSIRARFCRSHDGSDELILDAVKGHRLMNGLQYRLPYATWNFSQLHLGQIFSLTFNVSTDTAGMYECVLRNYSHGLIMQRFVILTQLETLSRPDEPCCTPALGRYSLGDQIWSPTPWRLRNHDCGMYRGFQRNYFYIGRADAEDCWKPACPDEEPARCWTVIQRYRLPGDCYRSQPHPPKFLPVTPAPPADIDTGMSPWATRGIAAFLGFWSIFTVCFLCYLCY
T1 sequence (Q6RJQ3 30-300 W235A): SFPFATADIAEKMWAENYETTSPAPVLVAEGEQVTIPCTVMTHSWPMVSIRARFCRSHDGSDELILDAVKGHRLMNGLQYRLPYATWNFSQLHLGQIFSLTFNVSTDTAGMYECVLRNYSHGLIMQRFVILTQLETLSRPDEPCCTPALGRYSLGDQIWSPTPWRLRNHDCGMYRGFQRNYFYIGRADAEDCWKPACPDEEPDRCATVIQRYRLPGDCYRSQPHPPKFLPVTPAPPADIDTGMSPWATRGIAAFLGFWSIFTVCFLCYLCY

Q: What does the source list for `CCC1C(O)C(O)CN1Cc1ccc(I)cc1` (stereo not drawn) [Compound 18]?
A: binding to UL141 mutant (UL141 W235A mutant): prevented binding; binding to UL141 mutant (UL141 D232A mutant): prevented binding; cytotoxicity (in words) [1]: no cytotoxicity was detected
